pIC50: −log10 of the molar value. Where a name gives a salt, the structure may show the parent alone. Read-outs that look alike come from different tables or passages of the source.
Target: T1, IKK2 (Homo sapiens, UniProt O14920)
T1 construct: made in house; host or cells: insect cells (baculovirus, pFastBac; SF9)
T1 sequence (O14920 1-756): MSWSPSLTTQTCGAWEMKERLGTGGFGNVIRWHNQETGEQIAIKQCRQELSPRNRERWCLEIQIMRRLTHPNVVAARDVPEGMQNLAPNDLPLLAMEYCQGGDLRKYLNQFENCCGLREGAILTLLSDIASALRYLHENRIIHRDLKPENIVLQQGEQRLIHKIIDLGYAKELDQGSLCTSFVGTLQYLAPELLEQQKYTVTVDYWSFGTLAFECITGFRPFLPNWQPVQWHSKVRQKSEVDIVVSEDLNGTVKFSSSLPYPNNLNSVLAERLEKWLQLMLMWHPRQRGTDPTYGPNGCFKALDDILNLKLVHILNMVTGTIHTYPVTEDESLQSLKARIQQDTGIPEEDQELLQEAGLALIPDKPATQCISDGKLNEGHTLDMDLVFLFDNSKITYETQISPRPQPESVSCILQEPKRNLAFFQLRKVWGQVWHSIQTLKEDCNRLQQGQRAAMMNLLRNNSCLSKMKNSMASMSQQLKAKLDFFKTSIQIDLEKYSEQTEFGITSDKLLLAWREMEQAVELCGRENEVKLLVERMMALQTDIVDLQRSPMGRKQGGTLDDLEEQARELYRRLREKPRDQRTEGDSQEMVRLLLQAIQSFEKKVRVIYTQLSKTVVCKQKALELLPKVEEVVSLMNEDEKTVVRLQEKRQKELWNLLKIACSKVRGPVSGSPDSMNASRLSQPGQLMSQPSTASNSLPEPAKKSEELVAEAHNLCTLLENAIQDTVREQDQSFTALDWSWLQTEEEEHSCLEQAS
Test: IKKβ Resin Enzyme Assay (IKK2 resin)
Format: biochemical
In short: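 Enzyme: human IKK2 with a C-terminal FLAG tag, baculovirus-expressed, purified as homodimer on anti-FLAG resin. It phosphorylates a biotinylated IκBα peptide with 1 μM ATP plus [γ-33P]ATP in 25 mM Hepes pH 7.6, Mg/Mn, for 30 min at 25° C. Incorporation is counted by scintillation after anion-exchange resin stop.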

[1] = Table 18, read-out: IKK2 Resin IC50
[2] = Table 23, read-out: IKK2 Resin IC50
[3] = Table 6, read-out: IKK2 Resin IC 50
[4] = Table 4, read-out: IKK2 Resin IC50
[5] = Table 3, read-out: IKK Resin IC50
[6] = Table 14, read-out: IKK2 Resin IC50
[7] = Table 2, read-out: IKK Resin IC50

Work on `C=CCNS(=O)(=O)c1ccc(-n2nc(C(N)=O)c3c2-c2cc(NC(=O)c4ccccc4Cl)ccc2CC3)cc1` [Example 421, 1-{4-[(allylamino)sulfonyl]phenyl}-8-[(2-chlorobenzoyl)amino]-4,5-dihydro-1H-benzo[g]indazole-3-carboxamide] yielded a pIC50 (read-out: IKK-2 resin IC50) of at least 6.00.

Compound `CCS(=O)(=O)c1ccc(-n2nc(C(N)=O)c3c2-c2cc(NC(=O)c4cc(N)ccc4Cl)ccc2CC3)cc1` [Example 398, 8-[(5-amino-2-chlorobenzoyl)amino]-1-[4-(ethylsulfonyl)phenyl]-4,5-dihydro-1H-benzo[g]indazole-3-carboxamide] has a pIC50 [1] of at least 6.00.

`CC(C)CNCC(=O)Nc1ccc2c(c1)-c1c(c(C(N)=O)nn1-c1ccc3c(c1)OCO3)CC2` [Example 451, 1-(1,3-benzodioxol-5-yl)-8-[(N-isobutylglycyl)amino]-4,5-dihydro-1H-benzo[g]indazole-3-carboxamide] gave a pIC50 [2] of at least 6.00.

Compound `NC(=O)c1nn(-c2ccc(F)cc2)c2c1CCc1ccc(NC(=O)c3cccc(Cl)c3Cl)cc1-2` [Example 238, 8-[(2,3-dichlorobenzoyl)amino]-1-(4-fluorophenyl)-4,5-dihydro-1Hbenzo[g]indazole-3-carboxamide] has a pIC50 [3] of at least 6.00.

Compound `NC(=O)c1nn(-c2ccc3c(c2)OCO3)c2c1CCc1ccc(NC(=O)c3cc(F)c(F)cc3Cl)cc1-2` [Example 166, 1-(1,3-benzodioxol-5-yl)-8-[(2-chloro-4,5-difluorobenzoyl)amino]-4,5-dihydro-1H-benzo[g]indazole-3-carboxamide] has a pIC50 [4] of at least 6.00.

`NC(=O)c1nn(-c2ccc(F)cc2)c2c1CCc1ccc(NC(=O)CNC3CCC3)cc1-2` [Example 452, 8-[(N-cyclobutylglycyl)amino]-1-(4-fluorophenyl)-4,5-dihydro-1H-benzo[g]indazole-3-carboxamide] was tested, and the pIC50 [2] was at least 6.00.

Compound `CSc1ccc(Cl)c(C(=O)Nc2ccc3c(c2)-c2c(c(C(N)=O)nn2-c2ccc4c(c2)OCO4)CC3)c1` [Example 190, 1-(1,3-benzodioxol-5-yl)-8-{2-chloro-5-[2-(methylthio)benzoyl]amino}-4,5-dihydro-1H-benzo[g]indazole-3-carboxamide] has a pIC50 [4] of at least 6.00.

Work on `NC(=O)c1nn(-c2ccc(/C=C/CCO)cc2)c2c1CCc1ccc(NC(=O)c3ccccc3Cl)cc1-2` [Example 298, 8-[(2-chlorobenzoyl)amino]-1-{4-[(1E)-4-hydroxybut-1-enyl]phenyl}-4,5-dihydro-1H-benzo[g]indazole-3-carboxamide] yielded a pIC50 (Table 11, read-out: IKK2 Resin IC50) of at least 6.00.

`CC(C)NCC(=O)Nc1ccc2c(c1)-c1c(c(C(N)=O)nn1-c1ccc3c(c1)OCO3)CC2` [Example 444, 1-(1,3-benzodioxol-5-yl)-8-[(N-isopropylglycyl)amino]-4,5-dihydro-1H-benzo[g]indazole-3-carboxamide] gave a pIC50 [2] of at least 6.00.

With `CS(=O)(=O)c1ccc(-n2nc(C(N)=O)c3c2-c2cc(NC(=O)c4ccc(C#N)cc4)ccc2CC3)cc1` [Example 144, 8-[(4-cyanobenzoyl)amino]-1-[4-(methylsulfonyl)phenyl]-4,5-dihydro-1H-benzo[g]indazole-3-carboxaniide] the pIC50 [5] was at least 6.00.

`NC(=O)c1nn(-c2ccc(F)cc2)c2c1CCc1ccc(NC(=O)c3cccnc3Cl)cc1-2` [Example 225, 8-{[(2-chloropyridin-3-yl)carbonyl]amino}-1-(4-fluorophenyl)-4,5-dihydro-1H-benzo[g]indazole-3-carboxamide] showed a pIC50 [3] of at least 6.00.

With `C=Cc1ccc(-n2nc(C(N)=O)c3c2-c2cc(NC(=O)c4cccnc4Cl)ccc2CC3)cc1` [Example 389, 8-{[(2-chloropyridin-3-yl)carbonyl]amino}-1-(4-vinylphenyl)-4,5-dihydro-1H-benzo[g]indazole-3-carboxamide] the pIC50 (Table 17, read-out: IKK2 Resin IC50) was at least 6.00.

In the case of `NC(=O)c1nn(-c2cc(F)cc(F)c2)c2c1CCc1ccc(NC(=O)c3cccnc3Cl)cc1-2` [Example 347, 8-{[(2-chloropyridin-3-yl)carbonyl]amino}-1-(3,5-difluorophenyl)-4,5-dihydro-1H-benzo[g]indazole-3-carboxamide], the pIC50 [6] was at least 6.00.

In the case of `Cc1ncccc1C(=O)Nc1ccc2c(c1)-c1c(c(C(N)=O)nn1-c1ccc(S(C)(=O)=O)cc1)CC2` [Example 100], the pIC50 [7] was at least 6.00.

`NCCCS(=O)(=O)c1ccc(-n2nc(C(N)=O)c3c2-c2cc(NC(=O)c4ccccc4Cl)ccc2CC3)cc1` [Example 404, 1-{4-[(3-aminopropyl)sulfonyl]phenyl}-8-[(2-chlorobenzoyl)amino]-4,5-dihydro-1H-benzo[g]indazole-3-carboxamide hydrochloride] gave a pIC50 [1] of at least 6.00.

`NC(=O)c1nn(-c2ccc(F)c(F)c2)c2c1CCc1ccc(NC(=O)c3ccccc3Cl)cc1-2` [Example 363, 8-[(2-chlorobenzoyl)amino]-1-(3,4-difluorophenyl)-4,5-dihydro-1H-benzo[g]indazole-3-carboxamide] was tested, and the pIC50 [6] was at least 6.00.

`NC(=O)c1nn(-c2ccc3c(c2)OCO3)c2c1CCc1ccc(NC(=O)c3ccncc3Cl)cc1-2` [Example 170, 1-(1,3-benzodioxol-5-yl)-8-[(3-chloroisonicotinoyl)amino]-4,5-dihydro-1H-benzo[g]indazole-3-carboxamide] gave a pIC50 [4] of at least 6.00.

Compound `CS(=O)(=O)c1ccc(C(=O)Nc2ccc3c(c2)-c2c(c(C(N)=O)nn2-c2ccc4c(c2)OCO4)CC3)c(Cl)c1` [Example 163, 1-(1,3-benzodioxol-5-yl)-8-{[2-chloro-4-(methylsulfonyl)benzoyl]amino}-4,5-dihydro-1H-benzo[g]indazole-3-carboxamide] has a pIC50 [4] of at least 6.00.

`NC(=O)c1nn(-c2ccc3c(c2)OCO3)c2c1CCc1ccc(NC(=O)CNC3CCC3)cc1-2` [Example 445, 1-(1,3-benzodioxol-5-yl)-8-[(N-cyclobutylglycyl)amino]-4,5-dihydro-1H-benzo[g]indazole-3-carboxamidehydrochloride] gave a pIC50 [2] of at least 6.00.

`CS(=O)(=O)c1ccc(-n2nc(C(N)=O)c3c2-c2cc(NC(=O)c4ccc(N)cc4Cl)ccc2CC3)cc1` [Example 114, 8-[(4-amino-2-chlorobenzoyl)amino]-1-[4-(methylsulfonyl)phenyl]-4,5-dihydro-1H-benzo[g]indazole-3-carboxamide] gave a pIC50 [7] of at least 6.00.

With `NC(=O)c1nn(-c2ccc3c(c2)OCO3)c2c1CCc1ccc(NC(=O)c3ccccc3[N+](=O)[O-])cc1-2` [Example 192, 1-(1,3-benzodioxol-5-yl)-8-[(2-nitrobenzoyl)amino]-4,5-dihydro-1H-benzo[g]indazole-3-carboxamide] the pIC50 [4] was at least 6.00.

With `CS(=O)(=O)c1ccc(-n2nc(C(N)=O)c3c2-c2cc(NC(=O)c4ccccc4)ccc2CC3)cc1` [Example 140, 8-(benzoylamino)-1-[4-(methylsulfonyl)phenyl]-4,5-dihydro-1H-benzo[g]indazole-3-carboxamide] the pIC50 [5] was at least 6.00.

Compound `CS(=O)(=O)c1ccc(-n2nc(C(N)=O)c3c2-c2cc(NC(=O)c4ccc(Cl)cc4N)ccc2CC3)cc1` [Example 117, 8-[(2-amino-4-chlorobenzoyl)amino]-1-[4-(methylsulfonyl)phenyl]-4,5-dihydro-1H-benzo[g]indazole-3-carboxamide] has a pIC50 [7] of at least 6.00.

Work on `CS(=O)(=O)c1ccc(-n2nc(C(N)=O)c3c2-c2cc(NC(=O)c4cc(Cl)ccc4[N+](=O)[O-])ccc2CC3)cc1` [Example 139, 8-[(5-chloro-2-nitrobenzoyl)amino]-1-[4-(methylsulfonyl)phenyl]-4,5-dihydro-1H-benzo[g]indazole-3-carboxamide] yielded a pIC50 [5] of at least 6.00.
